Test results published in ChEMBL document CHEMBL1201862, “PubChem BioAssay data set” (2004).
Each block holds one molecule with its values, some of them ahead of it. Calls of active or inactive are those of the source.

Columns and labels:
[1] = biological target: NS3 (Hepatitis C virus, UniProt A3EZJ3); experiment: PubChem AID 2173; design: species or system Hepacivirus hominis
[2] = biological target: T1, Carboxy-terminal domain RNA polymerase II polypeptide A small phosphatase 1 (Homo sapiens, UniProt Q9GZU7); experiment: inhibitors of CTDSP1, concentration-response testing, biochemical assay, absorbance-based, actives from ultra-high-throughput screening (AID 540297); format: functional
T1 sequence (Q9GZU7 whole entry): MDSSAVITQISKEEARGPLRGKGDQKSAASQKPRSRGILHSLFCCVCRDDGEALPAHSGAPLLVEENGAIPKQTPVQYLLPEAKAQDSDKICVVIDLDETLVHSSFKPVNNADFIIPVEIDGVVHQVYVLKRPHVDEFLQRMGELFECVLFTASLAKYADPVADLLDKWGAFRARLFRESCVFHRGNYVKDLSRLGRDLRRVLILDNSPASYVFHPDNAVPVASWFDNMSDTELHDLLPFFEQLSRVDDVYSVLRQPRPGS

[3] = biological target: T2, Alkaline phosphatase, tissue-nonspecific isozyme (Homo sapiens, UniProt P05186)
T2 sequence (P05186 whole entry): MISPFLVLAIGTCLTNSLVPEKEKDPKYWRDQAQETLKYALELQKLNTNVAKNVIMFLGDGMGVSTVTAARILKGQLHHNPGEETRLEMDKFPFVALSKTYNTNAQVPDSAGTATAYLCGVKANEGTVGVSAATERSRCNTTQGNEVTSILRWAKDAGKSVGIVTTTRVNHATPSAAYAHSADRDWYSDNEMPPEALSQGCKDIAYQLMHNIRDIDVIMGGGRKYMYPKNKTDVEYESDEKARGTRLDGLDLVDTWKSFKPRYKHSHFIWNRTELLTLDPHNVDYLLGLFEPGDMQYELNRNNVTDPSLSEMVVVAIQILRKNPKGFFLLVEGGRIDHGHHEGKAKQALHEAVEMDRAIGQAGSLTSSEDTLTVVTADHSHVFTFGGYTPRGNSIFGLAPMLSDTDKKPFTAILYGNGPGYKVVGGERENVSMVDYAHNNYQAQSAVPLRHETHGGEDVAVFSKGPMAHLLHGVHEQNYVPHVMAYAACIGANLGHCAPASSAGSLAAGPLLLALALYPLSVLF

[4] = biological target: 1-acylglycerol-3-phosphate O-acyltransferase ABHD5/Perilipin-5 (Homo sapiens, UniProt Q00G26+Q8WTS1); experiment: Luminescence-based biochemical high throughput dose response assay for inhibitors of the interaction of the lipase co-activator protein, abhydrolase domain containing 5 (ABHD5) with perilipin-5 (MLDP; PLIN5) (2K validation set). [Related pubchem assays (depositor defined):AID493035, AID493241]
1-acylglycerol-3-phosphate O-acyltransferase ABHD5/Perilipin-5, sequence (Q00G26 whole entry, the tested form may be a part): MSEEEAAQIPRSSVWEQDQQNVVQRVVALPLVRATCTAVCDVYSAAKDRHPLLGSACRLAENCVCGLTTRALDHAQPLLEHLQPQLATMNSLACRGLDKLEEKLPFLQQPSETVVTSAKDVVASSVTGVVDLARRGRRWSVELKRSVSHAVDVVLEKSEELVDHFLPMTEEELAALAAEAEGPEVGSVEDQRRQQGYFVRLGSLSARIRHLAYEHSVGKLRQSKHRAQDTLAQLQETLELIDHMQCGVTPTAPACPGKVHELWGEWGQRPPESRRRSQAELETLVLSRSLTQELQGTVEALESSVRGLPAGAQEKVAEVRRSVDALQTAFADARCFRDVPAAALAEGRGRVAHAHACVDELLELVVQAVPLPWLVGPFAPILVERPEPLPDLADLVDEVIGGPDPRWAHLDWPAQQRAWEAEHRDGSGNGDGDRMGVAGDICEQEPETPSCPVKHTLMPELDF
1-acylglycerol-3-phosphate O-acyltransferase ABHD5/Perilipin-5, sequence (Q8WTS1 whole entry, the tested form may be a part): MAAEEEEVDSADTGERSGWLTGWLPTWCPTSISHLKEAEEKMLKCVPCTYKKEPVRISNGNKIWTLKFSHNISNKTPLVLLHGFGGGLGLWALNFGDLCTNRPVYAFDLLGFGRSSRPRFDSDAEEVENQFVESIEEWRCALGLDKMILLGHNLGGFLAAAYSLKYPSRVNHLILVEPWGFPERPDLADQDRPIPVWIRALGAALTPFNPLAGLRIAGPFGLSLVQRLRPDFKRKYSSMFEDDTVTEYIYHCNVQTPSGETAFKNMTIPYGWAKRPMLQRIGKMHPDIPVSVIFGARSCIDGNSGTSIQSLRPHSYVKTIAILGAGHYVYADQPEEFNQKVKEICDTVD

[5] = biological target: Perilipin-1/ABHD5 (Homo sapiens, UniProt O60240+Q8WTS1); experiment: Luminescence-based biochemical high throughput dose response assay for inhibitors of the interaction of the lipase co-activator protein, abhydrolase domain containing 5 (ABHD5) with perilipin-1 (PLIN1) (2K validation set). [Related pubchem assays (depositor defined):AID493027, AID493057]
Perilipin-1/ABHD5, sequence (Q8WTS1 whole entry, the tested form may be a part): as above
Perilipin-1/ABHD5, sequence (O60240 whole entry, the tested form may be a part): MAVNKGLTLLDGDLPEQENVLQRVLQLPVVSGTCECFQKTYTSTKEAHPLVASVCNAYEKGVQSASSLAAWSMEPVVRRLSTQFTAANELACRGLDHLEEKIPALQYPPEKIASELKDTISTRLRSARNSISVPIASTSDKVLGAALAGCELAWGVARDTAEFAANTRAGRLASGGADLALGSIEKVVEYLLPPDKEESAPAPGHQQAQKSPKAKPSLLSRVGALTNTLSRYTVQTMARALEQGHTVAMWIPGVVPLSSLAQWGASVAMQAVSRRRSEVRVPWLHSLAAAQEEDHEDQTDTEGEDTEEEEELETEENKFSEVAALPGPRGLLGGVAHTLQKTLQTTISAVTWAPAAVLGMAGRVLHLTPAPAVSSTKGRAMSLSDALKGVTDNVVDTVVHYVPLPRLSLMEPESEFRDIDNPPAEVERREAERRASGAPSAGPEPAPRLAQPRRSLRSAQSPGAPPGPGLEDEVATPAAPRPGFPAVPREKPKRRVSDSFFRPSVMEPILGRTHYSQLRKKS

[6] = biological target: Neurotensin receptor type 1 (Homo sapiens, UniProt P30989); format: functional;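 also: Image-based confirmatory dose-response assay measuring agonist activity at NTR1; NTR1-expressing U2OS osteosarcoma cells imaged for beta-arrestin GFP spot formation; agonist potency where compounds increase beta-arrestin recruitment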
Neurotensin receptor type 1, sequence (P30989 whole entry): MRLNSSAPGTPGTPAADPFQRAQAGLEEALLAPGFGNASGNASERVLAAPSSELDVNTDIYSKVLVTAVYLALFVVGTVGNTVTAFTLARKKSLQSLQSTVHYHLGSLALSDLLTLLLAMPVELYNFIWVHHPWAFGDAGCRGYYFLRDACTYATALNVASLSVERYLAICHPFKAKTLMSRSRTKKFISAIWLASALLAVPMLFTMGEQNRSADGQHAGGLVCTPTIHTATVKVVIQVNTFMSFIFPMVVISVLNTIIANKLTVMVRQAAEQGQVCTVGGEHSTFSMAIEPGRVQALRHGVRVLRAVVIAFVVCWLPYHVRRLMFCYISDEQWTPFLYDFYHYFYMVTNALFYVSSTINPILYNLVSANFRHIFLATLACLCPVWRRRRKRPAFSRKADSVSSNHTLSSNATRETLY

[7] = biological target: Eukaryotic translation initiation factor 4H (Homo sapiens, UniProt Q15056); experiment: eIF4H inhibition in translation initiation, SAR follow-up (AID 435011); format: functional
[8] = biological target: Polyadenylate-binding protein 1 (Homo sapiens, UniProt P11940); experiment: PABP inhibition in translation initiation, SAR follow-up (AID 435018); format: functional
Polyadenylate-binding protein 1, sequence (P11940 whole entry): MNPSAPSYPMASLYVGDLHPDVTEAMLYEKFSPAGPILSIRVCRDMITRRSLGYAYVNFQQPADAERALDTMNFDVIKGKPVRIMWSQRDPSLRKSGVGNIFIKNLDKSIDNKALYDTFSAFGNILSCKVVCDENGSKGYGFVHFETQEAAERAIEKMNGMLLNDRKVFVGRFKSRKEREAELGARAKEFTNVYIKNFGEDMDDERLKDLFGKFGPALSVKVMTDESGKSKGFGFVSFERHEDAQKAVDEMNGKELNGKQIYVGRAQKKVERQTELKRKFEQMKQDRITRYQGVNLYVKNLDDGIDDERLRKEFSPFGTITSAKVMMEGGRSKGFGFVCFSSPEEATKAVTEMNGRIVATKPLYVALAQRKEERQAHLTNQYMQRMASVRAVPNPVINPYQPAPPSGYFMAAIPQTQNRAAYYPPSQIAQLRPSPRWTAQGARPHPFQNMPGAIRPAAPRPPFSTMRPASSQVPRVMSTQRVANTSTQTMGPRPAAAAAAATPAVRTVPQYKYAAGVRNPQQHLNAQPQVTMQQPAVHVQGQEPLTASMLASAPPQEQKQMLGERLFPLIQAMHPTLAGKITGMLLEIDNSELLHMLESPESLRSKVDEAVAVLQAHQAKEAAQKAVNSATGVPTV

[9] = biological target: T3, Aminopeptidase N (Plasmodium falciparum FcB1/Columbia, UniProt O96935); experiment: P. falciparum M1AAP inhibitors, biochemical, fluorogenic H-Leu-NHMec substrate, 1536-well (AID 1445); design: species or system Plasmodium falciparum 3D7, 3D7
T3 sequence (O96935 whole entry): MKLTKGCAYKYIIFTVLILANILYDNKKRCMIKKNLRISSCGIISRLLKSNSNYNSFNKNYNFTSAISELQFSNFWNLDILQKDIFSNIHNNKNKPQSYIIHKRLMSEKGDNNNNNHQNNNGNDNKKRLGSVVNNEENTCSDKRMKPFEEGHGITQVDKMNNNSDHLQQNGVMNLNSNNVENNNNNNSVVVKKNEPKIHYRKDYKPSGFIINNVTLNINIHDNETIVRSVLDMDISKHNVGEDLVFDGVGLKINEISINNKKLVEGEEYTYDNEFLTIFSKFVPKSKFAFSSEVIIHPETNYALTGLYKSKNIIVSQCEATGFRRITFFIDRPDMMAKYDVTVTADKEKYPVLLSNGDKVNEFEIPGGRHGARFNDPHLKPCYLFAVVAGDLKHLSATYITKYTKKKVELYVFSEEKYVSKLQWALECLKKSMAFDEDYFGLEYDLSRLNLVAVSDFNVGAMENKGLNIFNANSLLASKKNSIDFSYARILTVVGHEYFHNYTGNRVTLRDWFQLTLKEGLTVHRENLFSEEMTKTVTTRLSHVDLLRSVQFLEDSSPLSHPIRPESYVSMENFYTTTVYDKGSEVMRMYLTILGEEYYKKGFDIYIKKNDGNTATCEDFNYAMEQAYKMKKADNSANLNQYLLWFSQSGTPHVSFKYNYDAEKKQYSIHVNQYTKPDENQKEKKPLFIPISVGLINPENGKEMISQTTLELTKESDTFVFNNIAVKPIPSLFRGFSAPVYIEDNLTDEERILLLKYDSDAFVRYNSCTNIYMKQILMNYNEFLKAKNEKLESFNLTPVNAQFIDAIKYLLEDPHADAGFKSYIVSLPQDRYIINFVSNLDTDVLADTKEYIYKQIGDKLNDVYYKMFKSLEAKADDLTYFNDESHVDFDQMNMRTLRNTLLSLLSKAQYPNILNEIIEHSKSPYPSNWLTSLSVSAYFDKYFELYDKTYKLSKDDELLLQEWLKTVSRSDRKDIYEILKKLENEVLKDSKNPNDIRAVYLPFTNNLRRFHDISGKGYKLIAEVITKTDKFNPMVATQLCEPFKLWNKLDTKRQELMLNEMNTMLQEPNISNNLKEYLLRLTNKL

[10] = biological target: T4, RNA-binding protein pos-1 (Caenorhabditis elegans, UniProt G5EF15); experiment: inhibitors of POS-1/mex-3 RNA binding, dose response, biochemical, fluorescence polarization (AID 1964);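 also: purified POS-1 fused to maltose binding protein made in E. coli; potency of compounds blocking POS-1 binding to fluorescent RNA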
T4 sequence (G5EF15 whole entry): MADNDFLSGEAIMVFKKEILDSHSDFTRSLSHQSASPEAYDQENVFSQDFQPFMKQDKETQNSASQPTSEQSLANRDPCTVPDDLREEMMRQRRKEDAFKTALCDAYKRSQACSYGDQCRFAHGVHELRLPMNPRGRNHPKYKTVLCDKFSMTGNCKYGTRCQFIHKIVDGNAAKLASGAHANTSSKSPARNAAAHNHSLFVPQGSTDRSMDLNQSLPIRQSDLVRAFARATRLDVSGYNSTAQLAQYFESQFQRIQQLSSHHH

[11] = system: Streptococcus sp. 'group A'; experiment: growth inhibition of control SK(-) GAS strain, dose response, counter-screen for streptokinase expression inhibitor project, luminescence, kanamycin, BacTiterGlo, confirmation (AID 1900); format: functional, organism-based
[12] = biological target: T5, Zinc finger protein mex-5 (Caenorhabditis elegans, UniProt Q9XUB2); experiment: MEX-5/TCR-2 RNA interaction inhibitors, dose response, biochemical, C. elegans, fluorescence polarization (AID 1960)
T5 sequence (Q9XUB2 whole entry): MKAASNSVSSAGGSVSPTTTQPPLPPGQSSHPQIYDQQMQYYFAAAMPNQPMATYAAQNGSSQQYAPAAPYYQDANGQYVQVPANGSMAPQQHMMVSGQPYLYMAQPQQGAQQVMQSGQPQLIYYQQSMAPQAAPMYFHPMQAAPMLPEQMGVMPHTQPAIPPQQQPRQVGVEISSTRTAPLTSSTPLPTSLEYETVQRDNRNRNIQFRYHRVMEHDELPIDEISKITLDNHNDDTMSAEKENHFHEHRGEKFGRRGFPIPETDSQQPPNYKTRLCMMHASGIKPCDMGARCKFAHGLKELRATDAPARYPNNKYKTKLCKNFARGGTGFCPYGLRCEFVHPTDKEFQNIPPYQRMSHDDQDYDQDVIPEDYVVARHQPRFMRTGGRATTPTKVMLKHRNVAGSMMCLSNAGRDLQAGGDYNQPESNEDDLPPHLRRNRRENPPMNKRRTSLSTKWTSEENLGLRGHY

[13] = HIV-1 Env-mediated cell fusion inhibitors, dose response, CCR5-tropic Env (AID 2279); format: functional
[14] = biological target: Induced myeloid leukemia cell differentiation protein Mcl-1 (Homo sapiens, UniProt Q07820); format: functional
Induced myeloid leukemia cell differentiation protein Mcl-1, sequence (Q07820 whole entry): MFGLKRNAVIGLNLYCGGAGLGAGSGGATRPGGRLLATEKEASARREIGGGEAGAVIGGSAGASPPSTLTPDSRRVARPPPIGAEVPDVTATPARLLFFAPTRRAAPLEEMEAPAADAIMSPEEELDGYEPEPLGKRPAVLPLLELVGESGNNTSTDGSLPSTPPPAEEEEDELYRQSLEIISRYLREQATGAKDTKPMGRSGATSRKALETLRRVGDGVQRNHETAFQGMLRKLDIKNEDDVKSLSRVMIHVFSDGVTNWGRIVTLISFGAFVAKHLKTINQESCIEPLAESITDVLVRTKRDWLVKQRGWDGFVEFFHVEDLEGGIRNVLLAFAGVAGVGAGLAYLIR

[15] = system: Streptococcus; experiment: Group A Streptococcus viability loss, dose response, counter-screen for streptokinase expression inhibitor project, luminescence, BacTiterGlo (AID 1915); format: functional, organism-based;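 also: potency for reduction of bacterial viability or growth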

NS3, sequence (A3EZJ3 whole entry, the tested form may be a part): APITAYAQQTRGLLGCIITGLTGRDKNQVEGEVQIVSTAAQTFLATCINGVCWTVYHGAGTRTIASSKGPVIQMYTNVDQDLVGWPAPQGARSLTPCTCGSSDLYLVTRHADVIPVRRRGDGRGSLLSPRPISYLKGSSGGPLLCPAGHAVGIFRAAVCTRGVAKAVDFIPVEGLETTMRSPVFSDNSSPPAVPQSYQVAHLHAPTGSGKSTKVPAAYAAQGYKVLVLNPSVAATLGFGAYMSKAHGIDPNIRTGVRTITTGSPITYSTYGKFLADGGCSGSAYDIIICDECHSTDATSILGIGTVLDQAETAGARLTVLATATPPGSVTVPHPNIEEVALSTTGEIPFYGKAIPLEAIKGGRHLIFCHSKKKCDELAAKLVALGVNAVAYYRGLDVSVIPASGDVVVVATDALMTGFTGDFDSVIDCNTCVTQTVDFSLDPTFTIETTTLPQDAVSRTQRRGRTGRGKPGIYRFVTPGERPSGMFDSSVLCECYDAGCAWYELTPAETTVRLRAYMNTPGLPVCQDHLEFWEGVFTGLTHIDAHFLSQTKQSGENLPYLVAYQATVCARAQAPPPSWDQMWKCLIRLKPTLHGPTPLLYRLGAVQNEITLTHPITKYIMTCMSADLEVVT

SMILES: Cc1cccc(-n2c(CNC(=O)c3cccc([N+](=O)[O-])c3C)n[nH]c2=S)c1
EC50 [3]: > 100 µM (not active)

SMILES: COc1ccc(/C=C\C(=O)c2c(O)ccc3c(C)cc(=O)oc23)cc1OC
IC50 [4]: 8.91 µM (active) | IC50 [5]: 4.46 µM (active)

SMILES: O=C1c2ccc(Cl)cc2S(=O)(=O)c2cccc(C(=O)N3CCC(Cc4ccccc4)CC3)c21
EC50 [6]: 16.6 µM (active)

SMILES: Cc1ccccc1NC(=O)C1CCN(C(=O)c2cccs2)CC1
IC50 [7]: > 100 µM (inactive) | IC50 [8]: > 100 µM (inactive)

SMILES: O=c1cc(-c2ccccc2Cl)oc2c(NS(=O)(=O)c3cc(Cl)cc(Cl)c3O)ccc(O)c12
IC50 [9]: 51.6 µM (active) | EC50 [10]: > 300 µM (not active) | EC50 [11]: 1 µM (active) | EC50 [12]: 4.54 µM (inconclusive) | IC50 [13]: 4.77 µM (active) | IC50 [14]: 3.4 µM (active) | EC50 [15]: 2.26 µM (active)

The next lines start with the values.

IC50 [1]: 7.07 µM (active) | IC50 [2]: 7.1 µM (active)
SMILES: N#C/C(=C\c1ccc(OCc2ccc(C(=O)O)cc2)cc1)C(=O)NCc1ccccc1

IC50 [4]: 6.97 µM (active) | IC50 [5]: 7.1 µM (active)
SMILES: COc1ccc2c(c1)C=CC1(O2)N(CCO)c2ccccc2C1(C)C (stereo not drawn)

IC50 [1]: 5.66 µM (active)
SMILES: COC(=O)c1sc(N2C(=O)C(O)=C(C(=O)c3ccc(C)o3)C2c2cc(OC)ccc2OC)nc1C (stereo not drawn)
